pIC50: −log10 of the molar value. Counter-ions that a name gives are not always drawn. Like-named read-outs stand apart in the source and are kept apart here.
Target: T1, DPP-IV (Homo sapiens, UniProt P27487)
T1 construct: Soluble human DPP-IV lacking the transmembrane anchor (Gly31-Pro766); Pre-Pro-alpha-mating factor leader (secretion fusion) (N, cleaved yes); made in house
Assay: Continuous fluorimetric assay of inhibition of DPP-IV peptidase activity (Gly-Pro-AMC cleavage)
Assay type: biochemical
Protocol: Inhibition of DPP-IV peptidase activity was monitored with a continuous fluorimetric assay. This assay is based on the cleavage of the substrate Gly-Pro-AMC (Bachem) by DPP-IV, releasing free AMC. The assay is carried out in 96-well microtiterplates. In a total volume of 100 μL, compounds are preincubated with 50 pM DPP-IV employing a buffer containing 10 mM Hepes, 150 mM NaCl, 0.005% Tween 20 (pH 7.4). The reaction is started by the addition of 16 μM substrate and the fluorescence of liberated AMC is detected for 10 minutes at 25° C. with a fluorescence reader (BMG-Fluostar; BMG-Technologies) using an excitation wavelength of 370 nm and an emission wavelength of 450 nm. The final concentration of DMSO is 1%. The inhibitory potential of the compounds were determined.
Soluble human DPP-IV lacking the transmembrane anchor (Gly31-Pro766) was expressed in a recombinant YEAST-strain as Pre-Pro-alpha-mating fusion. The secreted product (rhuDPP-IV-Gly31-Pro766) was purified from fermentation broth (>90% purity) and used for inhouse screening.

[1] = 50 pM DPP-IV, 16 μM Gly-Pro-AMC, pH 7.4, 25° C., values grouped in 2 classes, read-out: IC50 for inhibition of DPP-IV peptidase activity

T1 sequence (P27487 31-766): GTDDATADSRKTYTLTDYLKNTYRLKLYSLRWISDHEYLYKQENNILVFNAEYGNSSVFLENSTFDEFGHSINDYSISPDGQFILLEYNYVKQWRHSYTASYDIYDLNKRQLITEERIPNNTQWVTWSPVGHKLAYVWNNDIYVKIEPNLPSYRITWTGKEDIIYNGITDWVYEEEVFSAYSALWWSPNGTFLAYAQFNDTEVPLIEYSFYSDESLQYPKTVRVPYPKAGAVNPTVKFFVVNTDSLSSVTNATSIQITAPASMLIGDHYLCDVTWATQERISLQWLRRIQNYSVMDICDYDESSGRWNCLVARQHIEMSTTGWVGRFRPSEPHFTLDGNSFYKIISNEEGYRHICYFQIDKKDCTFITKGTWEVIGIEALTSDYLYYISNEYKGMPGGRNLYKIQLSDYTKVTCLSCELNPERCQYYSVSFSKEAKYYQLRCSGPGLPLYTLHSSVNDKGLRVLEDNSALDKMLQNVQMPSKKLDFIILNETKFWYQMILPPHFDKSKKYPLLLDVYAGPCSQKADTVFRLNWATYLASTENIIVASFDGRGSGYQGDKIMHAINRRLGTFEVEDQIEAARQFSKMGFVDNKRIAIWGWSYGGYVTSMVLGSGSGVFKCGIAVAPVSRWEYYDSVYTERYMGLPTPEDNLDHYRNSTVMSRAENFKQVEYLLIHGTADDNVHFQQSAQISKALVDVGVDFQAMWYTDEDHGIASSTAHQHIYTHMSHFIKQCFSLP

Compound `N[C@@H](CC(=O)N1CCC(c2ccc(Cl)cc2)CC1)Cc1ccccc1F` [Example 35] has a pIC50 [1] of 5.70 to 6.30.

`N[C@@H](CC(=O)N1CCC(Cc2ccccc2)CC1)Cc1ccccc1F` [Example 1] showed a pIC50 [1] of 5.70 to 6.30.

`N[C@@H](CC(=O)N1CCC[C@H]1Cc1ccccc1)Cc1ccccc1F` (single isomer, unassigned) [Example 47] was tested, and the pIC50 [1] was over 6.30.

In the case of `N[C@@H](CC(=O)N1CCCC(Cc2ccccc2Cl)C1)Cc1ccccc1F` (some centres unmarked) [Example 33], the pIC50 [1] was 5.70 to 6.30.

Work on `N[C@@H](CC(=O)N1CCC(O)CC1)Cc1ccccc1F` [Example 10] yielded a pIC50 [1] of 5.70 to 6.30.

Compound `N[C@@H](CC(=O)N1CCC(c2nnc(-c3ccccc3)o2)CC1)Cc1ccccc1F` [Example 21] has a pIC50 [1] of over 6.30.

`N[C@@H](CC(=O)N1CCCC1Cc1ccccc1)Cc1ccccc1F` (mixture of isomers) [Example 12] gave a pIC50 [1] of over 6.30.

`N[C@@H](CC(=O)N1CCC(c2nc(-c3cccnc3)no2)CC1)Cc1ccccc1F` [Example 23] was tested, and the pIC50 [1] was over 6.30.

With `N[C@@H](CC(=O)N1CC[C@H](NC(=O)C2CC2)C1)Cc1ccccc1F` [Example 52, N-((S)-1-((R)-3-amino-4-(2-fluorophenyl)butanoyl)pyrrolidin-3-yl)cyclopropane-carboxamide trifluoroacetic acid salt] the pIC50 [1] was over 6.30.

Work on `N[C@@H](CC(=O)N1CCC(n2c(=O)[nH]c3ccccc32)CC1)Cc1ccccc1F` [Example 6] yielded a pIC50 [1] of over 6.30.

With `N[C@@H](CC(=O)N1CC[C@@H](NC(=O)c2ccccc2)C1)Cc1ccccc1F` [Example 55, N-((R)-1-((R)-3-amino-4-(2-fluorophenyl)butanoyl)pyrrolidin-3-yl)benzamide trifluoroacetic acid salt] the pIC50 [1] was over 6.30.

`N[C@@H](CC(=O)N1CCCC(F)C1)Cc1ccccc1F` (some centres unmarked) [Example 43] showed a pIC50 [1] of 5.70 to 6.30.

In the case of `N#CC1(c2ccccc2)CCN(C(=O)C[C@H](N)Cc2ccccc2F)CC1` [Example 5], the pIC50 was over 6.30.

Work on `N[C@@H](CC(=O)N1CCC(c2cccc(Cl)c2)CC1)Cc1ccccc1F` [Example 42] yielded a pIC50 [1] of 5.70 to 6.30.

With `CS(=O)(=O)c1ccc(-c2noc(C3CCN(C(=O)C[C@H](N)Cc4ccccc4F)CC3)n2)cc1` [Example 22] the pIC50 [1] was over 6.30.

`N[C@@H](CC(=O)N1CCC(N2C(=O)Cc3ccccc32)CC1)Cc1ccccc1F` [Example 45] was tested, and the pIC50 was over 6.30.

Compound `N[C@@H](CC(=O)N1CCC(c2nc(-c3ccncc3)no2)CC1)Cc1ccccc1F` [Example 15] has a pIC50 [1] of over 6.30.

Compound `N[C@@H](CC(=O)N1CCC(Nc2cccc(S(=O)(=O)C(F)(F)F)c2)CC1)Cc1ccccc1F` [Example 31] has a pIC50 [1] of over 6.30.

With `N[C@@H](CC(=O)N1CCC(c2ccccc2)CC1)Cc1ccccc1F` [Example 4] the pIC50 [1] was over 6.30.

For `CCN(CC)C(=O)C1CCCN(C(=O)C[C@H](N)Cc2ccccc2F)C1` (some centres unmarked) [Example 11], the pIC50 [1] was 5.70 to 6.30.

Work on `N[C@@H](CC(=O)N1CCC(F)CC1)Cc1ccccc1F` [Example 44] yielded a pIC50 [1] of 5.70 to 6.30.

`N[C@@H](CC(=O)N1CCCC(F)(F)C1)Cc1ccccc1F` [Example 30] gave a pIC50 [1] of 5.70 to 6.30.

Compound `N[C@@H](CC(=O)N1CCC(N(C2CC2)S(=O)(=O)c2ccc(Cl)cc2)CC1)Cc1ccccc1F` [Example 36] has a pIC50 [1] of over 6.30.

In the case of `COc1cc(OC)nc(C2CCN(C(=O)C[C@H](N)Cc3ccccc3F)CC2)n1` [Example 29], the pIC50 [1] was over 6.30.

For `N[C@@H](CC(=O)N1CCCC1Cc1cccc(Cl)c1)Cc1ccccc1F` (some centres unmarked) [Example 16], the pIC50 [1] was over 6.30.

`N[C@@H](CC(=O)N1CCC(C(=O)NCCO)CC1)Cc1ccccc1F` [Example 24] gave a pIC50 [1] of 5.70 to 6.30.

Work on `N[C@@H](CC(=O)N1CC[C@@H](NC(=O)C2CC2)C1)Cc1ccccc1F` [Example 54, N-((R)-1-((R)-3-amino-4-(2-fluorophenyl)butanoyl)pyrrolidin-3-yl)cyclopropane-carboxamide trifluoroacetic acid salt] yielded a pIC50 [1] of over 6.30.

`N[C@@H](CC(=O)N1CCCC1Cc1ccc(Cl)cc1)Cc1ccccc1F` (some centres unmarked) [Example 17] gave a pIC50 [1] of over 6.30.

With `N[C@@H](CC(=O)N1CC(C(=O)NCc2ccccc2)C1)Cc1ccccc1F` [Example 49, 1-[3-(R)-amino-4-(2-fluoro-phenyl)-butyryl]-azetidine-3-carboxylic acid benzylamide] the pIC50 [1] was 5.70 to 6.30.

Compound `N[C@@H](CC(=O)N1CCC(C(F)(F)F)CC1)Cc1ccccc1F` [Example 27] has a pIC50 [1] of over 6.30.

With `N[C@@H](CC(=O)N1CC(N2CCN(c3ccccn3)CC2)C1)Cc1ccccc1F` [Example 51, (3R)-3-amino-4-(2-fluoro-phenyl)-1-[3-(4-pyridin-2-yl-piperazin-1-yl)-azetidin-1-yl]-butan-1-one trifluoroacetic acid] the pIC50 [1] was 5.70 to 6.30.

With `N[C@@H](CC(=O)N1CCC(CO)CC1)Cc1ccccc1F` [Example 2] the pIC50 [1] was 5.70 to 6.30.

`N[C@@H](CC(=O)N1CCCC1Cc1cccnc1)Cc1ccccc1F` (some centres unmarked) [Example 13] was tested, and the pIC50 [1] was over 6.30.

`N[C@@H](CC(=O)N1CCC(c2cccc(F)c2)CC1)Cc1ccccc1F` [Example 37] showed a pIC50 [1] of 5.70 to 6.30.

For `N[C@@H](CC(=O)N1CCC(N2CCCCC2=O)CC1)Cc1ccccc1F` [Example 8], the pIC50 [1] was 5.70 to 6.30.

In the case of `COc1ccccc1C1CCN(C(=O)C[C@H](N)Cc2ccccc2F)CC1` [Example 9], the pIC50 [1] was over 6.30.

In the case of `N[C@@H](CC(=O)N1CCC(c2nc(-c3cnccn3)no2)CC1)Cc1ccccc1F` [Example 26], the pIC50 [1] was over 6.30.

`Cc1ccc(S(=O)(=O)C2CCN(C(=O)C[C@H](N)Cc3ccccc3F)CC2)cc1` [Example 39] gave a pIC50 [1] of over 6.30.

Work on `N[C@@H](CC(=O)N1CCC(N2CCOCC2)CC1)Cc1ccccc1F` [Example 25] yielded a pIC50 [1] of 5.70 to 6.30.

Compound `N[C@@H](CC(=O)N1CC(C(=O)Nc2ccccn2)C1)Cc1ccccc1F` [Example 50] has a pIC50 [1] of 5.70 to 6.30.

`N[C@@H](CC(=O)N1CCC(c2nnc(-c3cccc(C(F)(F)F)c3)o2)CC1)Cc1ccccc1F` [Example 41] was tested, and the pIC50 [1] was 5.70 to 6.30.

Work on `COc1ccc(C2CCN(C(=O)C[C@H](N)Cc3ccccc3F)CC2)cc1` [Example 7] yielded a pIC50 [1] of over 6.30.

Compound `N[C@@H](CC(=O)N1CCC(c2ccccc2C(F)(F)F)CC1)Cc1ccccc1F` [Example 38] has a pIC50 [1] of over 6.30.

`N[C@@H](CC(=O)N1CCC(n2nnc3ccccc32)CC1)Cc1ccccc1F` [Example 19] gave a pIC50 [1] of over 6.30.

With `N[C@@H](CC(=O)N1CCC(c2nc3ccccc3[nH]2)CC1)Cc1ccccc1F` [Example 32] the pIC50 [1] was over 6.30.

Work on `N[C@@H](CC(=O)N1CC[C@H](NC(=O)c2ccccc2)C1)Cc1ccccc1F` [Example 53, N-((S)-1-((R)-3-amino-4-(2-fluorophenyl)butanoyl)pyrrolidin-3-yl)benzamide trifluoroacetic acid salt] yielded a pIC50 [1] of over 6.30.

In the case of `N[C@@H](CC(=O)N1CCC(N(C2CC2)S(=O)(=O)c2ccccc2)CC1)Cc1ccccc1F` [Example 3], the pIC50 [1] was over 6.30.

With `N[C@@H](CC(=O)N1CCC(c2nc(-c3cccc(C(F)(F)F)c3)no2)CC1)Cc1ccccc1F` [Example 40] the pIC50 [1] was 5.70 to 6.30.

Compound `N[C@@H](CC(=O)N1CCCC(C(F)(F)F)C1)Cc1ccccc1F` (some centres unmarked) [Example 46] has a pIC50 [1] of 5.70 to 6.30.

`N[C@H](Cc1ccccc1F)CS(=O)(=O)N1CCC[C@H]1CNS(=O)(=O)c1ccccc1` [Example 56, N-{(S)-1-[(R)-2-Amino-3-(2-fluoro-phenyl)-propane-1-sulphonyl]-pyrrolidin-2-ylmethyl}-benzenesulfonamide] showed a pIC50 [1] of over 6.30.

`N[C@@H](CC(=O)N1CCC(Oc2ccccc2)CC1)Cc1ccccc1F` [Example 20] gave a pIC50 [1] of over 6.30.

`N[C@@H](CC(=O)N1CCCC1Cc1ccccn1)Cc1ccccc1F` (some centres unmarked) [Example 18] was tested, and the pIC50 [1] was over 6.30.

Work on `N[C@@H](CC(=O)N1CCCC(Oc2ccccc2)C1)Cc1ccccc1F` (some centres unmarked) [Example 34] yielded a pIC50 [1] of over 6.30.

`N[C@@H](CC(=O)N1CCC(n2c(=O)[nH]c3cc(Cl)ccc32)CC1)Cc1ccccc1F` [Example 14] was tested, and the pIC50 [1] was over 6.30.

`N[C@@H](CC(=O)N1CCC(c2nnc(-c3ccc(F)cc3)o2)CC1)Cc1ccccc1F` [Example 28] showed a pIC50 [1] of over 6.30.

For `N[C@@H](CC(=O)N1CCC[C@@H]1Cc1ccccc1)Cc1ccccc1F` (single isomer, unassigned) [Example 48], the pIC50 [1] was over 6.30.
